Experimental data from the supplement of paper PMC12532568.

Test system: Danio rerio larvae Tg(actc1b:ZsGreen-LC3), 3 dpf
Assay: LC3 puncta relative area vs vehicle (mean) (log2 fold change); higher = more autophagy
Conditions: treatment time 16 h
Description: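 Transgenic ZsGreen-LC3 zebrafish larvae (2 dpf) were treated for 16 h with natural bioactives at 10, 50, 100 or 250 µM. Skeletal-muscle LC3 puncta area was measured by high-content imaging with or without 4 h of 100 mM NH4Cl, normalised to vehicle, and reported as the mean log2 fold change over 4–21 larvae.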

Compound	LC3 puncta (log2) (NH4Cl: + NH4Cl, 10 µM)	LC3 puncta (log2) (NH4Cl: + NH4Cl, 50 µM)	LC3 puncta (log2) (NH4Cl: + NH4Cl, 100 µM)	LC3 puncta (log2) (NH4Cl: - NH4Cl, 10 µM)	LC3 puncta (log2) (NH4Cl: - NH4Cl, 50 µM)	LC3 puncta (log2) (NH4Cl: - NH4Cl, 100 µM)	LC3 puncta (log2) (NH4Cl: - NH4Cl, 250 µM)	LC3 puncta (log2) (NH4Cl: + NH4Cl, 250 µM)
O=C(O)c1ccccc1 [Benzoic acid]	-0.0668	0.917	1.5	0.129	0.383	1.14		
CC1=C(/C=C/C(C)=C/C=C/C(C)=C/CO)C(C)(C)CCC1 [Retinol]	1.19	0.124	0.0946	0.12	-0.269	0.255	0.596	
CC(C)C[C@H](N)C(=O)O [L-Leucine]	0.433	0.183	0.128	-0.25	-0.762	-0.689	-0.726	-0.405
